Several values for one entry are separate records, joined by “and”; a condition that tells them apart may be missing. Identical values can stand only once. Like-named read-outs stand apart in the source and are kept apart here.

In assay [1] the test system is non-tumor fibroblasts AG 1523. Description: MTT reduction assay, non-tumor fibroblasts. Type of assay: cell-based. Particulars: Homo sapiens, AG1523, 48 h incubation, read-out: IC50 ± SEM AG 1523. The method, then: (§1) As positive control, two well-known anticancer drugs, namely TAM and 5-FU, were also tested on these cell lines. […] Regarding 5-FU, it is a broad-spectrum chemotherapeutic drug used to treat a variety of malignancies. Particularly, it has a long history of use against bladder tumors.
Cell culture conditions were the same as reported elsewhere. Briefly, cell lines were kept in DMEM containing 10% fetal calf serum. In addition, 100 U/mL of penicillin and 100 µg/mL streptomycin from Gibco (Grand Island, NY, USA) were further added. Cell cultures were kept at 37 °C under an atmosphere of 95% air/5% CO2 and 100% humidity. Sodium L-ascorbate, menadione (vitamin K3), TAM, and 5-FU were purchased from Sigma (St. Louis, MO, USA).
The cytotoxicity of the quinones was assessed by following the reduction of MTT (3-(4,5-dimethylthiazol-2-yl)-2,5-diphenyltetrazolium bromide) to formazan blue and the capability of cancer cells to proliferate, namely a clonogenic assay.
(§2) Cells were seeded into 96-well plates at a density of 10,000 cells/well for 24 h and then incubated for 48 h with or without the quinone derivatives. […] The IC50 values were determined using the GraphPad Prism software (San Diego, CA, USA). Further incubation procedures and optical density reading of colored solutions were performed according to Benites et al..
(Formazan colour is commonly taken as a measure of viable cells.)

Assay [2] deals with panel of cancer cells (T24, DU-145, MCF-7). The assay is described as follows: MTT reduction assay, panel of cancer cells (means, ranges, selectivity index). Type of assay: cell-based, human. Particulars: for IC50: Homo sapiens. The method, then: as §1
Such a selective index was calculated as the ratio between IC50 values of healthy cells/IC50 values in cancer cells.
as §2

A further assay relates to T24 cells. The assay is described as follows: Clonogenic assay. The conditions noted are these: for cell growth compared to control conditions (100%), in brackets / number of colony forming units (CFUs): T24 cells; for number of colony forming units (CFUs): 24 h treatment, 10 days growth. The class given is cell-based, human. The method, then: Indeed, at a dose of 0.25 µM, it decreased from 195 to 72 the number of CFUs. Otherwise, it inhibits the proliferation of T24 cells by 63% as compared to the control untreated cells. […] The percentages of the observed cell growth compared to control conditions (100%) are indicated in brackets. […] Cells were allowed to adhere overnight, and then treated with quinones for 24 h. Afterward, they were washed with warm PBS, given fresh medium, and allowed to grow for 10 days. Clonogenic survival was determined by fixing and staining colonies using crystal violet and further counting their number. The number of colonies calculated under control conditions was set as 100%.

In a further assay the test system is PARP. The assay is described as follows: Immunoblot of PARP protein integrity in TLT cells. Type of assay: cell-based, murine. The conditions noted are these: 5 µM plus 1 mM ascorbate, 4 h. The method, then: Cancer cells were incubated for 4 h with 5 µM menadione (K3) or 15 either in the absence or in the presence of 1 mM ascorbate (Asc). Ctl represents control untreated cells. * p < 0.05 as compared to control conditions. Cancer cells were incubated for 4 h in the absence and in the presence of compounds. Afterward, cells were washed twice with ice-cold PBS and then resuspended in RIPA lysis buffer supplemented with 1% protease inhibitor cocktail (Sigma–Aldrich, St. Louis, MO, USA) and 3% phosphatase inhibitor cocktail (Calbiochem, Darmstadt, Germany). Treatment of samples and electrophoresis conditions were conducted as previously reported. Mouse monoclonal primary antibodies against hsp90α/β C-terminus (F8), and against β-actin (clone AC-15), were purchased from Santa Cruz Biotechnology (Santa Cruz, CA, USA) and from Abcam (Cambridge, UK), respectively. Rabbit polyclonal antibodies against PARP were purchased from BD Biosciences (San Diego, CA, USA). Goat anti-rabbit antibody and rabbit anti-mouse polyclonal antibody were purchased respectively from Chemicon International (Temecula, CA, USA) and DakoCytomation (Glostrup, Denmark).
A general note: In western blotting, separated proteins are transferred to a membrane and probed.

For a further assay, the system named is T24 (bladder) cells. Also noted: method as in doi:10.1016/j.tetlet.2015.07.034. The conditions noted are these: MTT, data from Valderrama et al. ref 16, read-out: IC50 ± SEM T24; cited from earlier work.
A further assay has as its system DU-145 (prostate) cells. Set-up: method as in doi:10.1016/j.tetlet.2015.07.034. The conditions noted are these: read-out: IC50 ± SEM DU-145, MTT, data from Valderrama et al. ref 16; cited from earlier work.
A further assay has as its system MCF-7 (breast) cells. Set-up: method as in doi:10.1016/j.tetlet.2015.07.034. The conditions noted are these: MTT, data from Valderrama et al. ref 16, read-out: IC50 ± SEM MCF-7; cited from earlier work.

By IC50 is commonly meant the concentration at which inhibition is half-maximal. In the case of `Cc1ccc2c(c1)SC1=NC3=C(C(=O)c4ccccc4C3=O)C(C)(O)N12` (stereo not drawn) [Compound 15], the IC50 in assay [1] was 32300 ± 3310 nM; in assay [2] (read-out: IC50 values on the panel of cancer cells (range over cell lines)), 110 to 1770 nM; in assay [2] (read-out: mean IC50 value calculated from the individual IC50 values of the three cancer cell lines) it was 1100 to 1610 nM; in the assay on T24 (bladder) cells it was 220 ± 60 nM; in the assay with DU-145 (prostate) cells, 110 ± 30 nM; with MCF-7 (breast) cells, 2980 ± 520 nM. Moreover, the “MSI: mean selective index” value in assay [2] (IC50 values of fibroblasts (AG 1523)/IC50 values of tumor cells (T24, DU-145, MCF-7)) is 29.4. In addition, in the assay on T24 cells (Homo sapiens, T-24, clonogenic assay, 0.25 µM, read-out: inhibition of the proliferation of T24 cells as compared to control untreated cells), the inhibition at 0.25 µM is 63%. Further, the “cell growth compared to control conditions (100%), in brackets” value in the assay on T24 cells (0.025 µM) stood at 92%; in the assay on T24 cells (0.125 µM) it was 83%; in the assay with T24 cells (0.25 µM) it was 37%; with T24 cells (1.25 µM) it was 11%; in the assay with T24 cells (2.5 µM), 8%; in the assay on T24 cells (5.0 µM), 1%. For the same molecule, the “number of colony forming units (CFUs)” value in the assay on T24 cells (0.025 µM) is 180 ± 11 CFUs; in the assay with T24 cells (0.125 µM), 162 ± 18 CFUs; with T24 cells (0.25 µM) it was 72 CFUs and 72 ± 5 CFUs; in the assay with T24 cells (1.25 µM), 22 ± 9 CFUs; in the assay with T24 cells (2.5 µM), 16 ± 3 CFUs; in the assay with T24 cells (5.0 µM) it was 2 ± 1 CFUs. In the assay with PARP, the PARP degradation result is recorded as “not PARP degradation”.

Source of the values: article PMC7071032, “In Vitro Inhibition of Hsp90 Protein by Benzothiazoloquinazolinequinones Is Enhanced in The Presence of Ascorbate. A Preliminary In Vivo Antiproliferative Study” (Molecules, 2020).
